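Growth conditions: 96-well plates. Treatment: test compound, 48 hours, 5 concentrations. Analysis: linear interpolation between bracketing concentrations; unreached endpoints set to highest concentration. GI50 = concentration required for 50% inhibition of growth. TGI denotes the concentration required for complete inhibition of growth.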
Experiments:
Experiment in all cases: NCI tumour cell line growth inhibition, 48 h
DMS 114 small cell lung = system: DMS 114 small cell lung
SN12K1 renal = system: SN12K1 renal
KM20L2 colon = system: KM20L2 colon
P388/ADR leukemia = system: P388/ADR leukemia
DLD-1 colon = system: DLD-1 colon
HOP-18 NSCLC = system: HOP-18 NSCLC
M19-MEL melanoma = system: M19-MEL melanoma
P388 leukemia = system: P388 leukemia
DU-145 prostate = system: DU-145 prostate
HS 578T breast = system: HS 578T breast
BT-549 breast = system: BT-549 breast
MDA-MB-231 breast = system: MDA-MB-231 breast
PC-3 prostate = system: PC-3 prostate
SR leukemia = system: SR leukemia

Compound	TGI (DMS 114 small cell lung) [µM]	TGI (M19-MEL melanoma) [µM]	TGI (DU-145 prostate) [µM]	TGI (HS 578T breast) [µM]	TGI (BT-549 breast) [µM]	TGI (MDA-MB-231 breast) [µM]	TGI (PC-3 prostate) [µM]	TGI (SR leukemia) [µM]	further results
c1ccc2c(c1)SP1Sc3ccccc3P21 (stereo unspecified)	> 100	> 100							TGI (SN12K1 renal): > 100 µM; TGI (KM20L2 colon): > 100 µM; TGI (P388/ADR leukemia): > 100 µM; TGI (DLD-1 colon): > 100 µM; TGI (HOP-18 NSCLC): 73.1 µM; TGI (P388 leukemia): > 100 µM
CC(=O)OC1CC(OC2C(O)CC(OC3C(O)CC(OC4CCC5(C)C(CCC6C5CCC5(C)C(C7=CC(=O)OC7)CCC65O)C4)OC3C)OC2C)OC(C)C1OC1OC(CO)C(O)C(O)C1O (stereo unspecified)			0.0489	0.0926	0.0984	2.98	0.159		
O=C1C(c2c(O)[nH]c3ccc(Cl)cc23)=Nc2ccccc21			> 25.9	24.1	> 100	6.9	> 28	> 100	
COCCNCc1ccc(-c2cc3nccc(Oc4ccc(NC(=O)C5(C(=O)Nc6ccc(F)cc6)CC5)cc4F)c3s2)nc1			4.51	4			5	6.04	GI50 (DU-145 prostate): 2.06 µM; GI50 (HS 578T breast): 1.06 µM; GI50 (SR leukemia): 1.96 µM; GI50 (PC-3 prostate): 1.81 µM
COC(=O)c1sc2c(c1C(=O)OC)C(=NC(C)(C)C)SC2=NC(C)(C)C			30.5	57.5	35.4	37.3	37	33.8	
COc1cc(NCCC(=O)O)c2ncccc2c1				> 100	> 100	> 100	> 100	> 100	
Cc1ccc(C(C)C)c(OCC(=O)N/N=C/c2c[nH]c3ccc(Br)cc23)c1			8.06	20.2	18.7	9.89	4.43	4.97	
Clc1cc(OCc2nn3c(Cc4ccccc4)nnc3s2)c(Cl)cc1OCc1nn2c(Cc3ccccc3)nnc2s1			> 100	> 100	95.9	> 100	> 100	10.4	
CN(C)c1cccc(OC(=O)NCCCl)c1	> 100	> 100							TGI (SN12K1 renal): > 100 µM; GI50 (KM20L2 colon): > 100 µM; TGI (KM20L2 colon): > 100 µM; TGI (P388/ADR leukemia): > 100 µM; TGI (DLD-1 colon): > 100 µM; TGI (HOP-18 NSCLC): > 100 µM
O=C(Sc1n[nH]c(=O)[nH]c1=O)c1cccc2nc3ccccc3nc12			36.2	77.8	> 100	> 100		> 100	
Cc1cccc2c1Sc1ccccc1C2NC(=O)CN(C)C (stereo unspecified)	> 100	> 100						> 100	TGI (KM20L2 colon): 37.4 µM
Nc1ccc(Cn2ccc3c4c(N)nc(N)nc4ccc32)cc1	1.94	5.59	14.3	7.32	16.4	3.48	16.8	4.74	TGI (KM20L2 colon): 10.8 µM; TGI (DLD-1 colon): 17 µM; TGI (HOP-18 NSCLC): 21.9 µM
Cc1ccc(Nc2nc(=O)c3c([nH]c4ccccc43)s2)cc1			32.5	75	33.5	33.8	28.3	> 100	
c1ccc2c(c1)SCCc1cn[nH]c1-2	> 100	> 100							TGI (SN12K1 renal): > 100 µM; TGI (KM20L2 colon): > 100 µM; TGI (P388/ADR leukemia): > 100 µM; TGI (DLD-1 colon): > 100 µM; TGI (HOP-18 NSCLC): > 100 µM; TGI (P388 leukemia): > 100 µM
CO/C=C1\OC(=O)C=C1OC	> 100	> 100							TGI (SN12K1 renal): > 100 µM; TGI (P388/ADR leukemia): > 100 µM; TGI (DLD-1 colon): > 100 µM; TGI (HOP-18 NSCLC): > 100 µM; TGI (P388 leukemia): > 100 µM
NNC(=O)c1cc([N+](=O)[O-])ccc1NC(=O)C12CC3CC(CC(C3)C1)C2			> 100	28.8	> 100	56.5	> 100	55.6	
c1csc(-c2ccc(CNc3c4ccccc4nc4ccccc34)cc2)c1			3.07		14.1		2.47		GI50 (DU-145 prostate): 1.65 µM; GI50 (BT-549 breast): 3.87 µM; GI50 (PC-3 prostate): 1.08 µM

— PubChem BioAssay (NCI)
